Measured values: patent US20210299034A1, “A Topical Composition” (Conopco, Inc., d/b/a UNILEVER, priority 2018, published 2021)

Test system: Human primary melanocytes
Test: Melanin content assay in α-MSH-stimulated melanocytes
Type: cell-based
Settings: for Melanin Content (%) Average ± SD: 72 h, untreated control (A) = 100
Description: Human primary melanocytes were grown in melanocytes growth medium (MGM) with human melanocyte growth supplement. 500 μL/well (5×10^4 cells/well) of this solution was plated in a 24 wells plate and incubated in an incubator (Thermo Scientific, Model 3111) at 37° C. with 5% CO2 atmosphere.
After 24 h of incubation, cell cultures were treated with the test actives (as outlined in table 1) dissolved in 20% ethanol. After 1 h of actives addition, 10 nM of α-MSH was added. The cells were again incubated for 72 h in an incubator. At the end of this incubation period, the culture medium was replaced with 120 μL/well of melanin content assay reagent (10% Dimethyl sulfoxide in 1 N sodium hydroxide) and incubated for 1 h at 60° C. in a shaker incubator. The supernatant was then transferred to a 384 well plate. The absorbance was measured at 405 nm with a microtiter plate reader (Genios Pro, Tecan M 1000).
In the first set of experiments, human primary melanocytes were subjected to treatments as outlined in table 1 below.

Compound: CCc1ccc(O)cc1O [C, 4-ethyl resorcinol]
- Melanin Content (%) Average ± SD (4-ER 50 μM, 10 nM α-MSH added 1 h after active, absorbance 405 nm): 68 ± 12.7%

Compound: α-Melanocyte stimulating hormone [B]
- Melanin content, comparison in words (10 nM MSH, example 1 vs black tea (example D), example B vs untreated control (example A)): over and above the control cells
- Melanin Content (%) Average ± SD (MSH 10 nM alone, no test active): 121 ± 9.7%
